Measured values as given in patent US20260193264A1, “BENZOYPARAZINE PYRAZINES AND THEIR USES” (FOGHORN THERAPEUTICS INC., priority 2022, published 2026).

How the values were obtained:
[1] = target: T1, HiBit-BRG1 fusion protein in stable HeLa cell line expressing HiBit-BRG1 and LgBit (Homo sapiens, UniProt P51532); test: HiBiT-BRG1 cell-based degradation assay (Nano-Glo HiBiT, 24 h); conditions: HeLa HiBit-BRG1/LgBit cells; for DC50: read-out: BRMG1 HiBit Degradation IC50; for Dmax: top dose 30 μM, read-out: BRG1 HiBit Degradation Maximum (%)
T1 construct: expressed in transfected cells
T1 sequence (P51532 whole entry, the tested form may be a part): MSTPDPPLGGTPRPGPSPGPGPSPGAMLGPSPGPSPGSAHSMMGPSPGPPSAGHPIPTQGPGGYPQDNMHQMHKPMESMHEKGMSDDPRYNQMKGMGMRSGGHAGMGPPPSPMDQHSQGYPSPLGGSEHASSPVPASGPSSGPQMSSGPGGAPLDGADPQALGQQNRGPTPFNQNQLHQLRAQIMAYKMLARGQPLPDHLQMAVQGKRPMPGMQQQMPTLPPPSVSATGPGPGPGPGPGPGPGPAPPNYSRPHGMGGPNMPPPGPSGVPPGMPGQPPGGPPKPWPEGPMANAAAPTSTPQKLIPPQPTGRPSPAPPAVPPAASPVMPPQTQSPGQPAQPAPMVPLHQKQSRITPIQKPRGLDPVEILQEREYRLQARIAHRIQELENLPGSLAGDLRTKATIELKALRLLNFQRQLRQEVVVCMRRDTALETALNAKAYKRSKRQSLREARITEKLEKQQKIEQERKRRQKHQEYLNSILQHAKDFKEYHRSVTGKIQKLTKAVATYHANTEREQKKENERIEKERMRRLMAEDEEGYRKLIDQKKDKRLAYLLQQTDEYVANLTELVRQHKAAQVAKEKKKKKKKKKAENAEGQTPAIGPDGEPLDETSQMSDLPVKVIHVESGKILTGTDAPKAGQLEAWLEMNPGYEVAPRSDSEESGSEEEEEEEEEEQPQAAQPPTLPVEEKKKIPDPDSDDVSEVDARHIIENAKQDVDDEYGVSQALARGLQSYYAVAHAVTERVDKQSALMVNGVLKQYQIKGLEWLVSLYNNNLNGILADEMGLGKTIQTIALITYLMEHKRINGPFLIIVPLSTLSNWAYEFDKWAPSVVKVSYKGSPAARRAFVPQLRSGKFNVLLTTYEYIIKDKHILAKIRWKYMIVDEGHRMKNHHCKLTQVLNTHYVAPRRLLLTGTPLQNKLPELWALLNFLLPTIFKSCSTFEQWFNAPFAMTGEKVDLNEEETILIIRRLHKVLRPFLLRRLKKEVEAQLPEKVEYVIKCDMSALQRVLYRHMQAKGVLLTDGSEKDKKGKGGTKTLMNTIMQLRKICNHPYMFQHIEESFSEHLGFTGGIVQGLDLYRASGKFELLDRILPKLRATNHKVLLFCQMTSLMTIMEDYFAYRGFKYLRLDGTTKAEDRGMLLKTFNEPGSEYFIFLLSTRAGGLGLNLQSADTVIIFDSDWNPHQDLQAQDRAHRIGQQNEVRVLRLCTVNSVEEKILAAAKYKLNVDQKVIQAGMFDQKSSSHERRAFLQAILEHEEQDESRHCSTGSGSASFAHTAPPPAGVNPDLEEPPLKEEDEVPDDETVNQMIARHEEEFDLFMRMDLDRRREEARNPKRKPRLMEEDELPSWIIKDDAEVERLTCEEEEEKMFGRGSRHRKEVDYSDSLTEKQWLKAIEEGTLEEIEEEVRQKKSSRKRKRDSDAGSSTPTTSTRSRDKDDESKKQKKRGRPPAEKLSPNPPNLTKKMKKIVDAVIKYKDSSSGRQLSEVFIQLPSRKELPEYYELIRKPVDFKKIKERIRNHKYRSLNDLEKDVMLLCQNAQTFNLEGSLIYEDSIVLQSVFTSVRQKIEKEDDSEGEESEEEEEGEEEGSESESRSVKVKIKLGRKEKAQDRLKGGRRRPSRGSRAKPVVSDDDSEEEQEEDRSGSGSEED
Experimental: Procedure: A stable HeLa cell line expressing HiBiT-BRM was generated. On day 0, 5000 cells were seeded in 40 μL of media into each well of 384-well cell culture plates. […] Subsequently plates were incubated for 24 h in a standard tissue culture incubator and equilibrated at room temperature for 15 minutes. Nano-Glo HiBiT Lytic Detection System (Promega N3050) reagent was freshly prepared and 20 ul was added to each well. Upon addition of this LgBit-containing reagent, the HiBiT and LgBiT proteins associate to form the luminescent NanoBiT luciferase. The plates were shaken for 10 minutes at room temperature and the bioluminescence read using an EnVision plate reader (PerkinElmer). For measurement of BRG1 degradation, a stable HeLa cell line expressing HiBit-BRG1 and LgBit was generated. The same protocol as above was then followed. The degradation % was calculated using the following formula: % degradation=100%−100%×(Lumsample−LumLC)/(LumHC−LumLC). DMSO treated cells are employed as High Control (HC) and 2 μM of a known BRM/BRG1 degrader standard treated cells are employed as Low Control (LC).

[2] = target: T2, HiBiT-BRM fusion protein in stable HeLa cell line (Homo sapiens, UniProt P51531); test: HiBiT-BRM cell-based degradation assay (Nano-Glo HiBiT Lytic Detection, 24 h); set-up: DC50: scale not given here; conditions: HeLa HiBiT-BRM cells; for DC50: read-out: BRM HiBit Degradation IC50; for BRM HiBit Degradation Maximum (%): top dose 30 μM
T2 construct: expressed in transfected cells
T2 sequence (P51531 whole entry, the tested form may be a part): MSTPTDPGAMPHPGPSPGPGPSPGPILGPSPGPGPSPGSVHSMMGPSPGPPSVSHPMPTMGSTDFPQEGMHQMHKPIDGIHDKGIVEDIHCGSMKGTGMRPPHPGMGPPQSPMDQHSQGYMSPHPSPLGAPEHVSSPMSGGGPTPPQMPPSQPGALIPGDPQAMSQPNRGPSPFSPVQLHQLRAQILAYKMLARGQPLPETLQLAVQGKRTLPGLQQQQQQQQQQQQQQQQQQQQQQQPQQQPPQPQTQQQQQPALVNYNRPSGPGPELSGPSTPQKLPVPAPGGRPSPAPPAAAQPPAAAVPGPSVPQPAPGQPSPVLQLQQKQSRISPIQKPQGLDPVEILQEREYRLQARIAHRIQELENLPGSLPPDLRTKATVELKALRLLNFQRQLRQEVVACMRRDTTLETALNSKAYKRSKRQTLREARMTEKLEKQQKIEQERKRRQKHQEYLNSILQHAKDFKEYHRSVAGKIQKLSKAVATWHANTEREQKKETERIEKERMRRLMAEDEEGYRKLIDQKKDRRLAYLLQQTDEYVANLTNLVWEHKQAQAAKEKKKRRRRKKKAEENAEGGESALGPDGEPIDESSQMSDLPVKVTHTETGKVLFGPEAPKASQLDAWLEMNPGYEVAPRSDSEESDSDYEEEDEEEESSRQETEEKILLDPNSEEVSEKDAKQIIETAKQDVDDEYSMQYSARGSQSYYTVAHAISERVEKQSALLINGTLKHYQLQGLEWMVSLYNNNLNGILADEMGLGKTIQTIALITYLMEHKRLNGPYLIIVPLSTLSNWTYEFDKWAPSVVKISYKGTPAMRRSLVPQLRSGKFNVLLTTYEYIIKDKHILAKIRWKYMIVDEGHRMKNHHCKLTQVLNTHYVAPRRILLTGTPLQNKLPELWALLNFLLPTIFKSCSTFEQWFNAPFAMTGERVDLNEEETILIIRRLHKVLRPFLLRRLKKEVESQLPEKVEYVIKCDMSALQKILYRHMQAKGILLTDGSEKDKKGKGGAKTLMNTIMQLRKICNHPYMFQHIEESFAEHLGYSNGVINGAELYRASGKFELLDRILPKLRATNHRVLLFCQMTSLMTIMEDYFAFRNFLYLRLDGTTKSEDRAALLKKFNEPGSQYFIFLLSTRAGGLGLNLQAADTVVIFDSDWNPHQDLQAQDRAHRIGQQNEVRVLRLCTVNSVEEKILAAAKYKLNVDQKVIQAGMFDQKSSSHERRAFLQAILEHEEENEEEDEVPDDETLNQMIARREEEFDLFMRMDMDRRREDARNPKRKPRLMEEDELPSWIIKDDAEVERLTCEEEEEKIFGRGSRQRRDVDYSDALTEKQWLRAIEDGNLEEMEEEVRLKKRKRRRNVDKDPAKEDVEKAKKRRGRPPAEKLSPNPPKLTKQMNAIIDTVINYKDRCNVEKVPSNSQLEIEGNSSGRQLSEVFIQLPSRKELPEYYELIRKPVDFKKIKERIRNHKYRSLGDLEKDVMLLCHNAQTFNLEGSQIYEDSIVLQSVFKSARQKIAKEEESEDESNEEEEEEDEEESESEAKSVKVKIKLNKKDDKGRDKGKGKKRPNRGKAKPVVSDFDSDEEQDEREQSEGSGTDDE
Experimental: Procedure: A stable HeLa cell line expressing HiBiT-BRM was generated. On day 0, 5000 cells were seeded in 40 μL of media into each well of 384-well cell culture plates. On day 1, cells were treated with 120 nL DMSO or 120 nL of 3-fold serially DMSO-diluted compounds (10 points in duplicate with 30 μM as final top dose). Subsequently plates were incubated for 24 h in a standard tissue culture incubator and equilibrated at room temperature for 15 minutes. Nano-Glo HiBiT Lytic Detection System (Promega N3050) reagent was freshly prepared and 20 ul was added to each well. Upon addition of this LgBit-containing reagent, the HiBiT and LgBiT proteins associate to form the luminescent NanoBiT luciferase. The plates were shaken for 10 minutes at room temperature and the bioluminescence read using an EnVision plate reader (PerkinElmer).
The degradation % was calculated using the following formula: % degradation=100%−100%×(Lumsample−LumLC)/(LumHC−LumLC). DMSO treated cells are employed as High Control (HC) and 2 μM of a known BRM/BRG1 degrader standard treated cells are employed as Low Control (LC).

SMILES	DC50 [1] [nM]	Dmax [1] [%]	DC50 [2] [nM]	BRM HiBit Degradation Maximum (%) [2]
Cc1ncsc1-c1ccc([C@H](C)NC(=O)[C@@H]2C[C@@H](O)CN2C(=O)C(C(C)C)n2cc(N3CCN(CC4CCCN(c5ccc6nnc(-c7ccccc7O)cc6c5)C4)CC3)nn2)cc1 (some centres unmarked) [Compound 280]	< 10	> 75	< 10	A (“A” indicates maximum degradation ≥75%)
Cc1ncsc1-c1ccc([C@H](C)NC(=O)[C@@H]2C[C@@H](O)CN2C(=O)C(C(C)C)n2cc(N3CCN(CC4CCN(c5ccc6cc(-c7ccccc7O)nnc6c5)CC4)CC3)nn2)cc1 (stereo partly drawn) [Compound 247, (2S,4R)-4-hydroxy-1-(2-(4-(4-((1-(3-(2-hydroxyphenyl)cinnolin-7-yl)piperidin-4-yl)methyl)piperazin-1-yl)-1H-1,2,3-triazol-1-yl)-3-methylbutanoyl)-N-((S)-1-(4-(4-methylthiazol-5-yl)phenyl)ethyl)pyrrolidine-2-carboxamide]	< 10	> 75	< 10	A (“A” indicates maximum degradation ≥75%)
Cc1ncsc1-c1ccc([C@H](C)NC(=O)[C@@H]2C[C@@H](O)CN2C(=O)[C@H](c2cc(-c3cnc(N4CCN(c5ccc6nnc(-c7ccccc7O)cc6c5)CC4)nc3)no2)C(C)C)cc1 [Compound 14, (2S,4R)-4-hydroxy-1-((S)-2-(3-(2-(4-(3-(2-hydroxyphenyl)cinnolin-6-yl)piperazin-1-yl)pyrimidin-5-yl)isoxazol-5-yl)-3-methylbutanoyl)-N—((S)-1-(4-(4-methylthiazol-5-yl)phenyl)ethyl)pyrrolidine-2-carboxamide]	> 100	> 75	> 10	A (“A” indicates maximum degradation ≥75%)
Cc1ncsc1-c1ccc([C@H](C)NC(=O)[C@@H]2C[C@@H](O)CN2C(=O)[C@@H](c2cc(OCC(=O)N3CC(c4ccc5nnc(-c6ccccc6O)cc5c4)C3)no2)C(C)C)cc1 [Compound 6, (2S,4R)-4-hydroxy-1-[(2R)-2-[3-(2-{3-[3-(2-hydroxyphenyl)cinnolin-6-yl]azetidin-1-yl}-2-oxoethoxy)-1,2-oxazol-5-yl]-3-methylbutanoyl]-N-[(1S)-1-[4-(4-methyl-1,3-thiazol-5-yl)phenyl]ethyl]pyrrolidine-2-carboxamide]		< 50	> 100	B (“B” indicates maximum degradation ≥50%)
Cc1ncsc1-c1ccc([C@H](C)NC(=O)[C@@H]2C[C@@H](O)CN2C(=O)[C@@H](c2cc(N3CC4(CCN(c5ccc6cc(-c7ccccc7O)nnc6c5)C4)C3)no2)C(C)C)cc1 [Compound 132, (2S,4R)-4-hydroxy-1-((R)-2-(3-(6-(3-(2-hydroxyphenyl)cinnolin-7-yl)-2,6-diazaspiro[3.4]octan-2-yl)isoxazol-5-yl)-3-methylbutanoyl)-N-((S)-1-(4-(4-methylthiazol-5-yl)phenyl)ethyl)pyrrolidine-2-carboxamide]	< 10	> 75	< 10	A (“A” indicates maximum degradation ≥75%)
Cc1ncsc1-c1ccc([C@H](C)NC(=O)[C@@H]2C[C@@H](O)CN2C(=O)[C@H](C2CC2)n2cc(N3CC4(CN(c5ccc6cc(-c7ccccc7O)nnc6c5)C4)C3)nn2)cc1 (single isomer, unassigned) [Compound 210]			< 10	A (“A” indicates maximum degradation ≥75%)
Cc1ncsc1-c1ccc([C@H](C)NC(=O)[C@@H]2C[C@@H](O)CN2C(=O)[C@@H](c2cc(N3CC4(CN(c5ccc6cc(-c7ccccc7O)nnc6c5)C4)C3)no2)C(C)C)cc1 (single isomer, unassigned) [Compound 51]			< 10	A (“A” indicates maximum degradation ≥75%)
